Measured values taken from the NIST ThermoML archive (doi:10.1016/j.jct.2006.09.014).
Values joined by “and” are separate entries in the source; they are usually repeats but may differ in a detail not shown here. Equal values may be shown once. ± gives the expanded uncertainty stated by the source.

Conditions: Liquid; for mass density: Bellows volumetry; for vapor or sublimation pressure: Closed cell (Static) method

CCCC [butane]
Conditions	mass density [kg/m3]
280 K, 145 kPa	594.1 ± 0.9
280 K, 168.4 kPa	594.15 ± 0.9
280 K, 191.6 kPa	594.23 ± 0.9
280 K, 215 kPa	594.24 ± 0.9
280 K, 238.3 kPa	594.32 ± 0.9
280 K, 261.7 kPa	594.34 ± 0.9
280 K, 285 kPa	594.4 ± 0.9
300 K, 271.4 kPa	571.6 ± 0.86
300 K, 294.8 kPa	571.61 ± 0.86
300 K, 318.1 kPa	571.67 ± 0.98
300 K, 341.4 kPa	571.69 ± 0.86
300 K, 364.8 kPa	571.72 ± 0.86
300 K, 388.1 kPa	571.76 ± 0.86
300 K, 411.5 kPa	571.8 ± 0.86
320 K, 469.7 kPa	547.03 ± 0.82
320 K, 493 kPa	547.12 ± 0.91
320 K, 516.3 kPa	547.15 ± 0.88
320 K, 539.6 kPa	547.22 ± 0.82
320 K, 563 kPa	547.25 ± 0.82
320 K, 586.3 kPa	547.25 ± 0.85
320 K, 609.6 kPa	547.3 ± 0.82
340 K, 763.1 kPa	520.53 ± 0.78
340 K, 786.4 kPa	520.62 ± 0.81
340 K, 809.7 kPa	520.68 ± 0.81
340 K, 833 kPa	520.72 ± 0.8
340 K, 856.3 kPa	520.82 ± 0.78
340 K, 879.7 kPa	520.9 ± 0.78
340 K, 903 kPa	520.96 ± 0.78
360 K, 1176.4 kPa	490.56 ± 0.72
360 K, 1199.7 kPa	490.68 ± 0.74
360 K, 1223 kPa	490.79 ± 0.74
360 K, 1246.3 kPa	490.91 ± 0.73
360 K, 1269.6 kPa	490.99 ± 0.73
360 K, 1292.9 kPa	491.01 ± 0.72
360 K, 1316.1 kPa	491.18 ± 0.72
380 K, 1759.6 kPa	454.68 ± 0.66
380 K, 1782.8 kPa	454.9 ± 0.66
380 K, 1806.1 kPa	455.09 ± 0.66
380 K, 1829.3 kPa	455.25 ± 0.67
380 K, 1852.5 kPa	455.46 ± 0.66
380 K, 1875.8 kPa	455.6 ± 0.66
380 K, 1899 kPa	455.78 ± 0.66
424 K, 3720.3 kPa	289.99 ± 1.1
424 K, 3720.4 kPa	289.82 ± 1.2
424 K, 3728.4 kPa	294.73 ± 1.1
424 K, 3737.3 kPa	298.52 ± 1.1

Conditions	mass density [kg/m3]	vapor or sublimation pressure
280 K	594.08 ± 0.95	133 ± 0.6 kPa
300 K	571.57 ± 0.91	257.5 ± 0.6 kPa
320 K	547.03 ± 0.88	456.2 ± 0.9 kPa
340 K	520.5 ± 0.83	752 ± 1.2 kPa
360 K	490.55 ± 0.78	1170.2 ± 1.8 kPa
370 K	–	1434.9 ± 2.2 kPa
380 K	454.55 ± 0.73	1739.9 ± 2.7 kPa and 1740.4 ± 2.7 kPa
390 K	–	2092.1 ± 3.3 kPa
400 K	–	2495.2 ± 3.9 kPa and 2494.6 ± 3.9 kPa
410 K	–	2955 ± 4.6 kPa
420 K	–	3482.5 ± 5.4 kPa
422 K	–	3597.5 ± 5.6 kPa
424 K	288.22 ± 1.7	3716.9 ± 5.8 kPa
